A short description of this data set: Stability of risperidone stock solution. The class given is physicochemical. The following applies: 200 μg/mL in acetonitrile/H2O (50/50 v/v), stored at +2-8° C. How it is done: Starting from this mother solution, calibration standards were prepared by dilution in the same sample solvent mixture as above. Six dilutions were performed to obtain calibration standards of 1, 5, 10, 25, 50, 100 and 200 μg/mL.

Molecules are shown by their SMILES.

As for `Cc1nc2n(c(=O)c1CCN1CCC(c3noc4cc(F)ccc34)CC1)CCCC2` [risperidone], the “stability of stock solution” value is no less than 5 months.

These data come from US12128132B2, “Drug delivery formulations” (MedinCell S.A., priority 2019, dated 2024).
